Test results reported in patent US20140171438A1, “Hybrid Compounds And Methods Of Making And Using The Same” (CELLCEUTIX CORPORATION, priority 2012, published 2014).
Converted amounts (≈) assume the structure as drawn. Where two headings read alike, the source gives them in different places.

Assays:
Format in all cases: cell-based
[1] = Cytotoxicity, colorimetric tetrazolium assay; conditions: one hour with compound in serum-free media
Method: Cytotoxicity of the compounds was evaluated in a colorimetric assay using a transformed human liver cell line (HepG2, HB-8065) and an embryonic mouse cell line (NIH/3T3 cells, CRL-1658). This assay measures the bioreduction of a novel tetrazolium compound to a soluble formazan product by viable cells. HepG2 cells were seeded in 96 well plates at 2×10^4 cells/well in MEM medium with 10% fetal bovine serum (FBS) for 24 hours prior to use. NIH/3T3 cells were seeded in 96 well plates at 2×10^4 cells/well in DMEM medium with 10% bovine calf serum (BCS) 24 hours prior to use. Cell monolayers were rinsed in serum-free media and incubated for one hour with the compound in serum-free media. After incubation, the media was replaced with serum supplemented media and live cells were measured using the Cell Titer 96 Aqueous […] (Promega, Madison, Wis.). EC50 values were determined using a four parameter logistic equation: Y=Bottom+(Top−Bottom)/(1+10̂((Log EC50−X)*HillSlope)). Actual results from a representative cytotoxicity assay are shown below in Table 2. Data is expressed as EC50 in μg/mL.

[2] = test system: Klebsiella pneumoniae ATCC 13883; assay: Antimicrobial activity, MIC, modified microbroth dilution; conditions: read-out: MIC (expressed as MIC50) K. Pnuemnoiae
Method: (§1) The compounds were screened for antimicrobial activity against a number of ATCC bacterial strains. Minimum Inhibitory Concentrations (MIC) of each of the compounds were determined using standard CLSI procedures modified by Hancock protocol against E. Coli ATCC 25922, Staphylococcus aureus ATCC 27660, Enterococcus faecalis ATCC 29212, Pseudomonas aeruginosa ATCC 10145, and Klebsiella pneumoniae ATCC 13883.
(§2) This procedure is a modification of the standard microbroth dilution assay recommended by the National Committee for Clinical Laboratory Standards (NCCLS) which has been developed for determining in vitro antimicrobial activities of cationic agents (Steinberg et al., Antimicrob. Agents Chemother., 1997, 41, 1738; and Yan et al., Antimicrob. Agents Chemother., 2001, 45, 1558). The modifications were made to minimize loss of the antimicrobial agent due to adsorption onto glass or plastic surfaces and by precipitation at high concentrations.
(§3) Three mL of Mueller-Hinton II Broth (cation-adjusted) was inoculated with 5 μL of frozen bacterial stock and incubated at 37° C. on a shaker platform (at 250 rpm) overnight. Compound stock solutions were prepared in DMSO and serial two-fold dilutions of compound were made in 0.01% acetic acid, 0.2% bovine serum albumin directly in the wells of the polypropylene plate at 10 μL/well. […] All samples were performed in duplicate. The overnight bacteria suspension was diluted to approximately 10^6 cfu/mL and inoculated into a polypropylene (Costar) 96-well round bottom plate (90 μL volumes). One set of control wells included broth-only samples with dilution buffer for testing sterility and providing blank values for the assay readings. Vehicle-control wells containing the bacterial suspension with DMSO (no compound) were also included. Following the overnight incubation (18 hours), cell growth was assessed by observing the presence of “acceptable growth”, defined by NCCLS as a ≧2 mm button or definite turbidity.
(§4) Actual results from a representative MIC assay are shown below in Table 1. Data is expressed as MIC50 in μg/mL. The bacterial isolates were as follows: E. coli (25922); S. aureus (27660); E. faecalis (29212); P. aeruginosa (10145); and K. pneumoniae (13883).

[3] = test system: Staphylococcus aureus ATCC 27660; assay: as above; conditions: read-out: MIC (expressed as MIC50) S. aureus
Method: as §1, §2, §3, §4

[4] = test system: Pseudomonas aeruginosa ATCC 10145; assay: as above; conditions: read-out: MIC (expressed as MIC50) P. Aeruginosa
Method: as §1, §2, §3, §4

E. Coli ATCC 25922 = assay: as above; conditions: Escherichia coli, read-out: MIC (expressed as MIC50) E. coli
Method: as §1, §2, §3, §4

[5] = test system: Enterococcus faecalis ATCC 29212; assay: as above; conditions: read-out: MIC (expressed as MIC50) E. faecalis
Method: as §1, §2, §3, §4

[6] = mouse, NIH/3T3 cells (CRL-1658)
[7] = ATCC13883, K. pneumoniae (13883), 18 hours incubation
[8] = ATCC27660, S. aureus (27660), 18 hours incubation
[9] = ATCC10145, P. aeruginosa (10145), 18 hours incubation
[10] = ATCC25922, E. coli (25922), 18 hours incubation
[11] = ATCC29212, E. faecalis (29212), 18 hours incubation

SMILES	EC50 at 1 h ([1]; human, HepG2 cells (HB-8065)) [mg/L]	EC50 at 1 h [1, 6] [mg/L]	MIC50 [2, 7] [mg/L]	MIC50 [3, 8] [mg/L]	MIC50 [4, 9] [mg/L]	MIC50 (E. Coli ATCC 25922; [10]) [mg/L]	MIC50 [5, 11] [mg/L]	MIC50 ([2]; ATCC13883, 18 h) [mg/L]	MIC50 ([3]; ATCC27660, 18 h) [mg/L]	MIC50 ([4]; ATCC10145, 18 h) [mg/L]	MIC50 (E. Coli ATCC 25922; ATCC25922, 18 h) [mg/L]	MIC50 ([5]; ATCC29212, 18 h) [mg/L]
N=C(N)NCCCCC(=O)Nc1cc(C(F)(F)F)cc(NC(=O)Nc2ccc(Oc3cc([N+](=O)[O-])cc(C(F)(F)F)c3)cc2)c1SCCN [Compound 100, (4-(2-(2-aminoethylthio)-3-(3-(4-(3-(trifluoromethyl)-5-nitrophenoxy)phenyl)ureido)-5-(trifluoromethyl)phenylcarbamoyl)butyl)guanidine]	396 (≈ 553 µM)	56.2 (≈ 78.4 µM)	50 (≈ 69.8 µM)	25 (≈ 34.9 µM)	50 (≈ 69.8 µM)	50 (≈ 69.8 µM)	50 (≈ 69.8 µM)	–	–	–	–	–
N=C(N)NCCCCC(=O)Nc1cc(C(F)(F)F)cc(NC(=O)Nc2ccc(Oc3cc([N+](=O)[O-])cc(C(F)(F)F)c3)cc2)c1O[C@@H]1CCNC1 [Compound 101, [3-[4-[[3-(5-guanidinopentanoylamino)-2-[(3R)-pyrrolidin-3-yl]oxy-5-(trifluoromethyl)phenyl]carbamoylamino]phenoxy]-5-(trifluoromethyl)phenyl]azinic acid]	> 1000	> 1000	–	–	–	–	–	100 (≈ 138 µM)	50 (≈ 68.8 µM)	> 100	> 100	100 (≈ 138 µM)
N=C(N)NCCCCC(=O)Nc1cc(C(F)(F)F)cc(NC(=O)Nc2ccc(Oc3cc(N)cc(C(F)(F)F)c3)cc2)c1SCCN [Compound 102, (4-(2-(2-aminoethylthio)-3-(3-(4-(3-amino-5-(trifluoromethyl)phenoxy)phenyl)ureido)-5-(trifluoromethyl)phenylcarbamoyl)butyl) guanidine]	68 (≈ 99 µM)	36.7 (≈ 53.4 µM)	6.25 (≈ 9.1 µM)	0.78 (≈ 1.14 µM)	12.5 (≈ 18.2 µM)	3.13 (≈ 4.56 µM)	6.25 (≈ 9.1 µM)	–	–	–	–	–
N=C(N)NCCCCC(=O)Nc1cc(C(F)(F)F)cc(NC(=O)Nc2ccc(Oc3cc(N)cc(C(F)(F)F)c3)cc2)c1O[C@@H]1CCNC1 [Compound 103, (4-(2-((R)-pyrrolidin-3-yloxy)-3-(3-(4-(3-amino-5-(trifluoromethyl)phenoxy)phenyl)ureido)-5-(trifluoromethyl)phenylcarbamoyl)butyl)guanidine]	–	–	12.5 (≈ 17.9 µM)	0.78 (≈ 1.12 µM)	12.5 (≈ 17.9 µM)	3.13 (≈ 4.49 µM)	12.5 (≈ 17.9 µM)	–	–	–	–	–
N=C(N)NCCCCC(=O)Nc1cc(C(F)(F)F)cc(NC(=O)Nc2ccc(Oc3cc(NCCN)cc(C(F)(F)F)c3)cc2)c1O[C@@H]1CCNC1 [Compound 104]	148 (≈ 200 µM)	82.7 (≈ 112 µM)	3.13 (≈ 4.23 µM)	0.049 (≈ 0.0662 µM)	6.25 (≈ 8.45 µM)	3.13 (≈ 4.23 µM)	3.13 (≈ 4.23 µM)	–	–	–	–	–
N=C(N)NCCCCC(=O)Nc1cc(C(F)(F)F)cc(NC(=O)Nc2ccc(Oc3cc(NCCCN)cc(C(F)(F)F)c3)cc2)c1SCCN [Compound 105, (4-(2-(2-aminoethylthio)-3-(3-(4-(3-(3-aminopropylamino)-5-(trifluoromethyl)phenoxy)phenyl)ureido)-5-(trifluoromethyl)phenylcarbamoyl)butyl)guanidine]	40 (≈ 53.8 µM)	49.4 (≈ 66.4 µM)	1.56 (≈ 2.1 µM)	0.195 (≈ 0.262 µM)	3.13 (≈ 4.21 µM)	1.56 (≈ 2.1 µM)	0.78 (≈ 1.05 µM)	–	–	–	–	–
N=C(N)NCCCCC(=O)Nc1cc(C(F)(F)F)cc(NC(=O)Nc2ccc(Oc3cc(NCCN)cc(C(F)(F)F)c3)cc2)c1SCCN [Compound 106, (4-(2-(2-aminoethylthio)-3-(3-(4-(3-(2-aminoethylamino)-5-(trifluoromethyl)phenoxy)phenyl)ureido)-5-(trifluoromethyl)phenylcarbamoyl)butyl) guanidine]	61.8 (≈ 84.7 µM)	52.6 (≈ 72.1 µM)	1.56 (≈ 2.14 µM)	0.195 (≈ 0.267 µM)	3.13 (≈ 4.29 µM)	0.78 (≈ 1.07 µM)	1.56 (≈ 2.14 µM)	–	–	–	–	–
N=C(N)NCCCCC(=O)Nc1cc(C(F)(F)F)cc(NC(=O)Nc2cccc(Oc3cc(NC(=N)N)cc(C(F)(F)F)c3)c2)c1SCCN [Compound 107, N-[2-(2-aminoethylsulfanyl)-3-[[3-[3-guanidino-5-(trifluoromethyl)phenoxy]phenyl]carbamoylamino]-5-(trifluoromethyl)phenyl]-5-guanidino-pentanamide]	–	–	12.5 (≈ 17.2 µM)	0.39 (≈ 0.535 µM)	6.25 (≈ 8.58 µM)	3.13 (≈ 4.3 µM)	12.5 (≈ 17.2 µM)	–	–	–	–	–
N=C(N)NCCCCC(=O)Nc1cc(C(F)(F)F)cc(NC(=O)Nc2ccc(Oc3ccc(NCCN)c(C(F)(F)F)c3)c(CCCN)c2)c1SCCN [Compound 108, N-[3-[[4-[4-(2-aminoethylamino)-3-(trifluoromethyl)phenoxy]-3-(3-aminopropyl)phenyl]carbamoylamino]-2-(2-aminoethylsulfanyl)-5-(trifluoromethyl)phenyl]-5-guanidino-pentanamide]	395 (≈ 502 µM)	186 (≈ 236 µM)	3.13 (≈ 3.98 µM)	3.13 (≈ 3.98 µM)	6.25 (≈ 7.94 µM)	3.13 (≈ 3.98 µM)	1.56 (≈ 1.98 µM)	–	–	–	–	–
N=C(N)NCCCCC(=O)Nc1cc(C(F)(F)F)cc(NC(=O)Nc2ccc(Oc3ccc(NCCN)c(C(F)(F)F)c3)c(CCCN)c2)c1O[C@@H]1CCNC1 [Compound 109, N-[3-[[4-[4-(2-aminoethylamino)-3-(trifluoromethyl)phenoxy]-3-(3-aminopropyl)phenyl]carbamoylamino]-2-[(3R)-pyrrolidin-3-yl]oxy-5-(trifluoromethyl)phenyl]-5-guanidino-pentanamide]	409 (≈ 513 µM)	256 (≈ 321 µM)	6.25 (≈ 7.84 µM)	3.13 (≈ 3.93 µM)	12.5 (≈ 15.7 µM)	6.25 (≈ 7.84 µM)	1.56 (≈ 1.96 µM)	–	–	–	–	–
N=C(N)NCCCCC(=O)Nc1cc(C(F)(F)F)cc(NC(=O)Nc2cccc(Oc3cc(NC(=N)N)cc(C(F)(F)F)c3)c2)c1O[C@@H]1CCNC1 [Compound 116, 5-guanidino-N-[3-[[3-[3-guanidino-5-(trifluoromethyl)phenoxy]phenyl]carbamoylamino]-2-[(3R)-pyrrolidin-3-yl]oxy-5-(trifluoromethyl)phenyl]pentanamide]	–	–	12.5 (≈ 16.9 µM)	0.39 (≈ 0.528 µM)	6.25 (≈ 8.46 µM)	3.13 (≈ 4.24 µM)	12.5 (≈ 16.9 µM)	–	–	–	–	–
N=C(N)NCCCCC(=O)Nc1cc(C(F)(F)F)cc(NC(=O)Nc2cccc(Oc3cc(NCCCN)cc(C(F)(F)F)c3)c2)c1SCCN [Compound 117]	–	–	3.13 (≈ 4.21 µM)	0.39 (≈ 0.524 µM)	6.25 (≈ 8.4 µM)	1.56 (≈ 2.1 µM)	3.13 (≈ 4.21 µM)	–	–	–	–	–
N=C(N)NCCCCC(=O)Nc1cc(C(F)(F)F)cc(NC(=O)Nc2cccc(Oc3cc(NCCCN)cc(C(F)(F)F)c3)c2)c1O[C@@H]1CCNC1 [Compound 118, N-[3-[[3-[3-(3-aminopropylamino)-5-(trifluoromethyl)phenoxy]phenyl]carbamoylamino]-2-[(3R)-pyrrolidin-3-yl]oxy-5-(trifluoromethyl)phenyl]-5-guanidino-pentanamide]	–	–	3.13 (≈ 4.15 µM)	0.195 (≈ 0.259 µM)	6.25 (≈ 8.29 µM)	3.13 (≈ 4.15 µM)	3.13 (≈ 4.15 µM)	–	–	–	–	–
